Experimental findings from patent EP0206138A1, “Anthracycline compounds, a process for their preparation and their use as medicaments” (priority 1985, dated 1986) are described below.

The test system of one series is P388 leukemia cells. Description: Cytotoxicity on tissue culture: growth inhibition of cultured P388 leukemia cells. Format: cell-based. The text has this:
(1) Cytotoxicity (on tissue culture)
The barminomycin compounds of the present invention were capable of inhibiting the growth of cultured P388 leukemia cells in very low concentrations. […] For further detail, see the following table.

Another series deals with L1210 leukemia cells. Description: Anti-tumor activity: L1210 leukemia transplanted intraperitoneally into CDF1 mice, life prolongation. The class given is in vivo. To be noted: for percentage life prolongation (T/C%): saline control = 100; for intoxication: L1210-bearing CDF1 mice. How it is done:
L1210 leukemia cells (1 x 10^5 per animal) were transplanted intraperitoneally into CDF1 mice. Immediately after the transplantation, 0.25 ml of a selected test compound in solution was administered intraperitoneally in accordance with the schedule shown below. The anti-tumor activities of the test compounds in terms of percentage life prolongation (T/C%) are listed in the same table, with the number of days of survival of control mice to which physiological saline had been administered being taken as 100 (day 0 means the day of L1210 transplantation).

For series [1], the system named is Klebsiella p eumoniae PCI 602. Description: Antimicrobial activity, MIC by agar dilution method. The class given is cell-based. To be noted: Klebsiella p eumoniae PCI 602, agar dilution method. On the procedure:
(§1) The antimicrobial activities of barminomycin I and Ir of the present invention, and that of carminomycin III were determined by the agar dilution method.

Another series has as its system S. aureus MS9610. The description is as above. The class given is cell-based. On the procedure: as §1
A further series relates to E. coli K-12. The series is described as above. Format: cell-based. To be noted: E. coli K-12, agar dilution method. On the procedure: as §1
In general terms: In agar dilution, organisms are placed on agar that contains the substance at set levels.

The test system of series [2] is Bacillus subtilis PCI 219. Described as above. Format: cell-based. To be noted: Bacillus subtilis PCI 219, agar dilution method. How it is done: as §1
For series [3], the system named is Micrococcus Lysodeikticus IFO 3333. The series is described as above. The class given is cell-based. To be noted: Micrococcus Lysodeikticus IFO 3333, agar dilution method. How it is done: as §1
In series [4] the test system is Pseudomonas aeruginosa A3. Described as above. Format: cell-based. On the procedure: as §1
In series [5] the test system is Mycobacterium smegmatis 607. The description is as above. The class given is cell-based. To be noted: Mycobacterium smegmatis 607, agar dilution method. On the procedure:
as §1

For another series, the system named is S. aureus Smith. Described as above. Format: cell-based. How it is done: as §1
The test system of a further series is Proteus vulgaris OX19. The series is described as above. Format: cell-based. On the procedure: as §1
In the next series the test system is E. coli BE1186. The series is described as above. Format: cell-based. How it is done: as §1
The subject of another series is S. aureus MS8710. The series is described as above. Format: cell-based. On the procedure:
as §1

For a further series, the system named is E. coli BE1121. The description is as above. The class given is cell-based. How it is done: as §1
A further series concerns E. coli NIHJ. Described as above. Format: cell-based. On the procedure: as §1
The next series has as its system Serratia marcescens. The description is as above. The class given is cell-based. How it is done:
as §1

Series [6] has as its system Staphylococcus aureus FAD 209P. The description is as above. Format: cell-based. How it is done:
as §1

Where [7] appears, read: 0.0078 µg/mouse/day intraperitoneally, 0 - 10 days (daily).
Where [8] appears, read: 0.0157 µg/mouse/day intraperitoneally, 0 - 10 days (daily).
Setting [9] is: 0.0625 µg/mouse/day intraperitoneally, 0 - 10 days (daily).
The mark [10] stands for this setting: 0.125 µg/mouse/day intraperitoneally, 0 - 10 days (daily).
Setting [11] is: 0.25 µg/mouse/day intraperitoneally, 0 - 10 days (daily).
[12] abbreviates: 1.25 µg/mouse/day intraperitoneally, 0 - 9 days (daily).
Where [13] appears, read: 2.5 µg/mouse/day intraperitoneally, 0 - 9 days (daily).
Setting [14] is: 5 µg/mouse/day intraperitoneally, 0 - 9 days (daily).
The mark [15] stands for this setting: 10 µg/mouse/day intraperitoneally, 0 - 9 days (daily).
[16] abbreviates: 20 µg/mouse/day intraperitoneally, 0 - 9 days (daily).
[17] abbreviates: 40 µg/mouse/day intraperitoneally, 0 - 9 days (daily).

In brackets after ≈: the same amount, converted by molar mass. Several values for one entry are separate records, joined by “and”; a condition that tells them apart may be missing. Identical values can stand only once. Like-named read-outs stand apart in the source and are kept apart here.

On to `CC(=O)C1(O)Cc2c(O)c3c(c(O)c2C(OC2CC4N=CC(C)OC(CC(C)O)OC4C(C)O2)C1)C(=O)c1c(O)cccc1C3=O` (single isomer, unassigned) [Barminomycin II], for which the concentration for half-maximal inhibition (IC50) (as a rule, the concentration that inhibits the measured activity by half) in the series on P388 leukemia cells is ~ 0.00002 µg/mℓ. For the same molecule, the “percentage life prolongation (T/C%)” value in the series on L1210 leukemia cells (setting [7]) is listed as >500%, >500%; in the series on L1210 leukemia cells (setting [8]) it was 120%; with L1210 leukemia cells (setting [10]) it was 173%; in the series with L1210 leukemia cells (0.313 µg/mouse/day intraperitoneally, 0 - 10 days (daily)), 140%. Besides, the intoxication result with L1210 leukemia cells (setting [9]) was “tendency of intoxication”; with L1210 leukemia cells (setting [10]) it was “tendency of intoxication”; in the series on L1210 leukemia cells (setting [11]) it was “Intoxicated to death at 4 days, and 5 days”.
As to `CC(=O)C1(O)Cc2c(O)c3c(c(O)c2C(OC2CC4NCC(C)OC(CC(C)O)OC4C(C)O2)C1)C(=O)c1c(O)cccc1C3=O` (single isomer, unassigned) [Barminomycin IIr], the 50% inhibitory concentration (IC50) in the series with P388 leukemia cells is 0.002 µg/mL (≈ 0.00312 µM). Also, the “percentage life prolongation (T/C%)” value was 123% in the series with L1210 leukemia cells (setting [12]); 129% in the series with L1210 leukemia cells (setting [13]); 123% in the series on L1210 leukemia cells (setting [14]); 86% with L1210 leukemia cells (setting [15]); 43% in the series on L1210 leukemia cells (setting [16]); 37% with L1210 leukemia cells (setting [17]). In addition, the intoxication result in the series on L1210 leukemia cells (setting [16]) and with L1210 leukemia cells (setting [17]) was “Intoxication” in each case.
`CC(=O)C1(O)Cc2c(O)c3c(c(O)c2C(OC2CC4NCC(C)OC(CC(C)O)OC4C(C)O2)C1)C(=O)c1c(O)cccc1C3=O` (single isomer, unassigned) [Barminomycin Ir] yielded a concentration for half-maximal inhibition (IC50) in the series with P388 leukemia cells of 0.0015 µg/mL (≈ 0.00234 µM). The “percentage life prolongation (T/C%)” value with L1210 leukemia cells (setting [12]) is listed as 97%; in the series with L1210 leukemia cells (setting [13]), 129%; with L1210 leukemia cells (setting [14]), 141%; in the series on L1210 leukemia cells (setting [15]) it was 49%; in the series with L1210 leukemia cells (setting [16]) it was 37%; in the series on L1210 leukemia cells (setting [17]), 25%. Also, the results for the intoxication result in the series on L1210 leukemia cells (setting [15]), with L1210 leukemia cells (setting [16]) and with L1210 leukemia cells (setting [17]) were “Tendency of intoxication”, “Intoxication” and “Intoxication”, respectively. Moreover, the minimum inhibitory concentration (MIC) (in general, the smallest concentration in the dilution series that meets the test's criterion for growth inhibition) worked out at 6.25 µg/mL (≈ 9.74 µM) in [1]; 1.56 µg/mL (≈ 2.43 µM) against S. aureus MS9610; 6.25 µg/mL (≈ 9.74 µM) against E. coli K-12; 0.39 µg/mL (≈ 0.608 µM) in [2]; 0.78 µg/mL (≈ 1.22 µM) in [3]; 12.5 µg/mL (≈ 19.5 µM) in [4]. Further, the minimal inhibitory concentration (MIC) in series [5] is 6.25 µg/mL (≈ 9.74 µM); with S. aureus Smith, 0.78 µg/mL (≈ 1.22 µM); in the series on Proteus vulgaris OX19, more than 50 µg/mL; in the series on E. coli BE1186, 0.2 µg/mL (≈ 0.312 µM); in the series on S. aureus MS8710, 1.56 µg/mL (≈ 2.43 µM); in the series on E. coli BE1121, 0.2 µg/mL (≈ 0.312 µM). Besides, the MIC against E. coli NIHJ was 50 µg/mL (≈ 77.9 µM); in the series with Serratia marcescens, 3.12 µg/mL (≈ 4.86 µM); in [6], 0.78 µg/mL (≈ 1.22 µM).
With `COc1cccc2c1C(=O)c1c(O)c3c(c(O)c1C2=O)C[C@@](O)(C(=O)CO)C[C@@H]3O[C@H]1C[C@H](N)[C@H](O)[C@H](C)O1` [Adriamycin, adriamycin, reference compound], in the series with P388 leukemia cells (Mus musculus, read-out: IC50), the IC50 was 0.013 µg/mL (≈ 0.0239 µM).
Regarding `CC(=O)C1(O)Cc2c(O)c3c(c(O)c2C(OC2CC4N=CC(C)OC(CC(C)O)OC4C(C)O2)C1)C(=O)c1c(O)cccc1C3=O` (centres unmarked) [Barminomycin I], the IC50 in the series on P388 leukemia cells is ~ 0.00001 µg/mℓ. The “percentage life prolongation (T/C%)” value is 160% in the series on L1210 leukemia cells (setting [7]); 187% and 120% in the series with L1210 leukemia cells (setting [8]); 213% and 147% in the series with L1210 leukemia cells (setting [9]); 147% with L1210 leukemia cells (setting [10]); 120% in the series on L1210 leukemia cells (setting [11]). Further, the intoxication result is “tendency of intoxication” in the series on L1210 leukemia cells (setting [10]) and “Intoxicated to death at 4 days” in the series on L1210 leukemia cells (setting [11]). The minimum inhibitory concentration (MIC) in [1] is 0.39 µg/mL (≈ 0.61 µM); with S. aureus MS9610, 0.2 µg/mL (≈ 0.313 µM); against E. coli K-12, 0.78 µg/mL (≈ 1.22 µM); in series [2] it was less than 0.1 µg/mL; in series [3] it was 0.2 µg/mL (≈ 0.313 µM); in series [4] it was 1.56 µg/mL (≈ 2.44 µM). For the same molecule, the minimal inhibitory concentration (MIC) was 0.78 µg/mL (≈ 1.22 µM) in series [5]; 0.2 µg/mL (≈ 0.313 µM) with S. aureus Smith; 3.12 µg/mL (≈ 4.88 µM) against Proteus vulgaris OX19; less than 0.1 µg/mL against E. coli BE1186; 0.2 µg/mL (≈ 0.313 µM) in the series on S. aureus MS8710; less than 0.1 µg/mL in the series with E. coli BE1121. The MIC was 3.12 µg/mL (≈ 4.88 µM) against E. coli NIHJ, 0.78 µg/mL (≈ 1.22 µM) against Serratia marcescens and 0.2 µg/mL (≈ 0.313 µM) in series [6].
Turning to `CC(=O)[C@]1(O)Cc2c(O)c3c(c(O)c2[C@@H](O[C@H]2C[C@H](N)[C@H](O)[C@H](C)O2)C1)C(=O)c1c(O)cccc1C3=O` [Carminomycin I, carminomycin I, reference compound], in the series on P388 leukemia cells (Mus musculus, read-out: IC50), the 50% inhibitory concentration (IC50) is 0.002 µg/mL (≈ 0.00389 µM).
With `CC(=O)C1(O)Cc2c(O)c3c(c(O)c2C(OC2CC(N)C(OC(CC(C)O)OC(C)CO)C(C)O2)C1)C(=O)c1c(O)cccc1C3=O` (centres unmarked) [Carminomycin II, carminomycin II, reference compound], the IC50 with P388 leukemia cells stood at 0.010 µg/mL (≈ 0.0152 µM).
carminomycin III [reference compound] gave a concentration for half-maximal inhibition (IC50) in the series on P388 leukemia cells of 0.006 µg/mL. Besides, the minimum inhibitory concentration (MIC) in [1] was 50 µg/mL; with S. aureus MS9610 it was 1.56 µg/mL; with E. coli K-12 it was more than 50 µg/mL; in series [2], 1.56 µg/mL; in series [3], 1.56 µg/mL; in series [4] it was more than 50 µg/mL. Further, the minimum inhibitory concentration (MIC) in series [5] was 6.25 µg/mL; against S. aureus Smith, 3.12 µg/mL; against Proteus vulgaris OX19, more than 50 µg/mL; against S. aureus MS8710, 1.56 µg/mL; in the series on E. coli BE1121 it was 1.56 µg/mL; against E. coli NIHJ, more than 50 µg/mL. Further, the minimal inhibitory concentration (MIC) with Serratia marcescens came to 25 µg/mL; in series [6], 3.12 µg/mL.
